Measured values from patent EP3807270B1, “NOVEL HETEROARYL HETEROCYCLYL COMPOUNDS FOR THE TREATMENT OF AUTOIMMUNE DISEASE” (F. Hoffmann-La Roche AG, priority 2018, dated 2019).

Biological target: T1, human TLR8 (Homo sapiens, UniProt Q9NR97)
T1 construct: host or cells: HEK293 (HEK-Blue)
T1 sequence (Q9NR97 27-1041): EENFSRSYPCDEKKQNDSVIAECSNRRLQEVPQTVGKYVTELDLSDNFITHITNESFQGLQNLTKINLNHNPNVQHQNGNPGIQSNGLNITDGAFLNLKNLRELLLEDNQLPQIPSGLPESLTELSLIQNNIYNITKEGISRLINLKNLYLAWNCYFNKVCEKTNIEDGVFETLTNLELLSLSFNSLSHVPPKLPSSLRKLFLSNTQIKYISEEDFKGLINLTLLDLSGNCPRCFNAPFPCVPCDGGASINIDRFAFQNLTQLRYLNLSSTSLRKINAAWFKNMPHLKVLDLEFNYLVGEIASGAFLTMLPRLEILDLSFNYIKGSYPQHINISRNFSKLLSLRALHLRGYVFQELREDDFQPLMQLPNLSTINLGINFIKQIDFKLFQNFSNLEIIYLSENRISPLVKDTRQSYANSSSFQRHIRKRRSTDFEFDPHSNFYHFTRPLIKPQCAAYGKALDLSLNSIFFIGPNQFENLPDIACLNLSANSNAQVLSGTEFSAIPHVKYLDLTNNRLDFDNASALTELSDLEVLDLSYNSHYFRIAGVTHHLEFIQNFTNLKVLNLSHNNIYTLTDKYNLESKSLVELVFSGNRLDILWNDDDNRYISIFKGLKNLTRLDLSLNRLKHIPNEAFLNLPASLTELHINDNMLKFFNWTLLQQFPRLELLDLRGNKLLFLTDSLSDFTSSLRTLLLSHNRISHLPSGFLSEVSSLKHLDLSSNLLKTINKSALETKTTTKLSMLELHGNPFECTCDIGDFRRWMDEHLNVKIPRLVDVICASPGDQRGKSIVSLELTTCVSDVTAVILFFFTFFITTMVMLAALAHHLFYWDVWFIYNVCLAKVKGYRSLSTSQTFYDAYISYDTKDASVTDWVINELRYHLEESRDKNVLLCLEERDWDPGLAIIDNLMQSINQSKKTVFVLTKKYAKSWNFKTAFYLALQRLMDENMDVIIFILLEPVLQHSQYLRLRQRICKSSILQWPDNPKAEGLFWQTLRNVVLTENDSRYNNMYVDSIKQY
Assay: HEK293-Blue-hTLR-8 cells assay (SEAP reporter, R848 stimulation)
Format: cell-based
Settings: HEK293-Blue-hTLR8 cells, R848, 20 hrs; read-out: HEK/hTLR8 IC50
From the text: A stable HEK293-Blue-hTLR-8 cell line was purchased from InvivoGen (Cat.#: hkb-htlr8, San Diego, California, USA). These cells were originally designed for studying the stimulation of human TLR8 by monitoring the activation of NF-κB. A SEAP (secreted embryonic alkaline phosphatase) reporter gene was placed under the control of the IFN-β minimal promoter fused to five NF-κB and AP-1-binding sites. The SEAP was induced by activating NF-κB and AP-1 via stimulating HEK-Blue hTLR8 cells with TLR8 ligands. Therefore, the reporter expression was declined by TLR8 antagonist under the stimulation of a ligand, such as R848, for incubation of 20 hrs. The cell culture supernatant SEAP reporter activity was determined using QUANTI-Blue™ kit (Cat.#: rep-qb1, Invivogen, San Diego, Ca, USA) at a wavelength of 640 nm, a detection medium that turns purple or blue in the presence of alkaline phosphatase.
HEK293-Blue-hTLR8 cells were incubated at a density of 250,000-450,000 cells/mL in a volume of 170 µL in a 96-well plate in Dulbecco's Modified Eagle's medium (DMEM) containing 4.5 g/L glucose, 50 U/mL penicillin, […], […], 2 mM L-glutamine, 10% (v/v) heat-inactivated fetal bovine serum with addition of 20 µL test compound in a serial dilution in the presence of final DMSO at 1% and 10 µL of 60uM R848 in above DMEM, perform incubation under 37 °C in a CO2 incubator for 20 hrs. Then 20 µL of the supernatant from each well was incubated with 180 µL Quanti-blue substrate solution at 37°C for 2 hrs and the absorbance was read at 620-655 nm using a spectrophotometer. The signaling pathway that TLR8 activation leads to downstream NF-κB activation has been widely accepted, and therefore similar reporter assay was modified for evaluating TLR8 antagonist.

| Structure (SMILES) | IC50 [nM] |
| --- | --- |
| C[C@@H]1CN(c2ccc(C#N)c3ncccc23)C[C@H](CN2CC3(C2)CN(c2cnc4c(c2)CNCC4)CCO3)O1 [Example 47, 5-[(2R,6S)-2-methyl-6-[[8-(5,6,7,8-tetrahydro-1,6-naphthyridin-3-yl)-5-oxa-2,8-diazaspiro[3.5]nonan-2-yl]methyl]morpholin-4-yl]quinoline-8-carbonitrile] | 20 |
| C[C@@H]1CN(c2ccc(C#N)c3ncccc23)C[C@H](CN2CCN(c3cnc4c(c3)CNCC4)C(C)(C)C2)O1 [Example 56, 5-[(2S,6R)-2-[[3,3-dimethyl-4-(5,6,7,8-tetrahydro-1,6-naphthyridin-3-yl)piperazin-1-yl]methyl]-6-methyl-morpholin-4-yl]quinoline-8-carbonitrile] | 12 |
| C[C@@H]1CN(c2ccc(C#N)c3nccnc23)C[C@H](CN2CCN(c3cnc4c(c3)CNC4)CC2)O1 [Example 25, 8-[(2S,6R)-2-[[4-(6,7-dihydro-5H-pyrrolo[3,4-b]pyridin-3-yl)piperazin-1-yl]methyl]-6-methyl-morpholin-4-yl] quinoxaline-5-carbonitrile] | 17 |
| COc1ccc(N2CCN(C[C@H]3CN(c4ccc(C#N)c5ncccc45)C[C@@H](C)O3)CC2)cc1 [Example R1, 5-[(2S,6R)-2-[[4-(4-methoxyphenyl)piperazin-1-yl]methyl]-6-methyl-morpholin-4-yl]quinoline-8-carbonitrile, reference compound] | 142 |
| C[C@@H]1CN(c2ccc(C#N)c3ncccc23)C[C@H](CN2CCC(Nc3ncc4c(n3)CCNC4)C2)O1 (stereo partly drawn) [Example 57, 5-[(2R,6S)-2-methyl-6-[[3-(5,6,7,8-tetrahydropyrido [4,3-d]pyrimidin-2-ylamino)pyrrolidin-1-yl]methyl]morpholin-4-yl] quinoline-8-carbonitrile] | 37 |
| C[C@@H]1CN(c2ccc(C#N)c3ncccc23)C[C@H](CN2CCN(c3ccc4c(c3)C(O)CNC4)CC2)O1 (stereo partly drawn) [Example 22, 5-[(2S,6R)-2-[[4-(4-hydroxy-1,2,3,4-tetrahydroisoquinolin-6-yl)piperazin-1-yl]methyl]-6-methyl-morpholin-4-yl]quinoline-8-carbonitrile] | 19 |
| C[C@@H]1CN(c2ccc(C#N)c3ncccc23)C[C@H](CN2CCN(c3ccc4c(n3)[C@H](C)NC4)CC2)O1 (single isomer, unassigned) [Example 66] | 9 |
| C[C@@H]1CN(c2ccc(C#N)c3ncccc23)C[C@H](CN2CCN(c3cnc4c(c3)CN[C@@H]4C)CC2)O1 (single isomer, unassigned) [Example 68] | 16 |
| C[C@@H]1CN(c2ccc(C#N)c3ncccc23)C[C@H](CN2CCN(c3cc4c(cn3)[C@@H](C)NCC4)CC2)O1 (single isomer, unassigned) [Example 73] | 7 |
| C[C@@H]1CN(c2ccc(C#N)c3nccnc23)C[C@H](CN2CCN(c3cc4c(cn3)CCNC4)CC2)O1 [Example 80, 8-[(2R,6S)-2-methyl-6-[[4-(5,6,7,8-tetrahydro-2,6-naphthyridin-3-yl)piperazin-1-yl]methyl]morpholin-4-yl]quinoxaline-5-carbonitrile] | 7 |
| C[C@@H]1CN(c2ccc(C#N)c3ncccc23)C[C@H](CN2CCN(c3ccc4c(c3)C(O)CN(C)C4)CC2)O1 (stereo partly drawn) [Example 59, 5-[(2S,6R)-2-[[4-(4-hydroxy-2-methyl-3,4-dihydro-1H-isoquinolin-6-yl)piperazin-1-yl]methyl]-6-methyl-morpholin-4-yl]quinoline-8-carbonitrile] | 11 |
| C[C@@H]1CN(c2ccc(C#N)c3ncccc23)C[C@H](CN2CCN(c3ccc4c(c3)CCNC4)CC2)O1 [Example 5, 5-[(2R,6S)-2-methyl-6-[[4-(1,2,3,4-tetrahydroisoquinolin-6-yl)piperazin-1-yl]methyl]morpholin-4-yl]quinoline-8-carbonitrile] | 20 |
| C[C@@H]1CN(c2ccc(C#N)c3ncccc23)C[C@H](CN2CC3[C@H](C2)OCCN3c2ccc3c(n2)CCNC3)O1 (stereo in doubt) [Example 53, cis-5-[(2R,6S)-2-methyl-6-[[4-(5,6,7,8-tetrahydro-1,6-naphthyridin-2-yl)-2,3,4a,5,7,7a-hexahydropyrrolo[3,4-b][1,4]oxazin-6-yl]methyl]morpholin-4-yl]quinoline-8-carbonitrile] | 21 |
| C[C@@H]1CN(c2ccc(C#N)c3ncccc23)C[C@H](CN2CCN(c3ccc4c(n3)[C@@H](C)NC4)CC2)O1 (single isomer, unassigned) [Example 65] | 9 |

Now those with a lower IC50, led by results:

| IC50 [nM] | Structure (SMILES) |
| --- | --- |
| < 3 | C[C@@H]1CN(c2ccc(C#N)c3ncccc23)C[C@H](CN2CC3(C2)CN(c2ccc4c(n2)CCNC4)CCO3)O1 [Example 49, 5-[(2R,6S)-2-methyl-6-[[8-(5,6,7,8-tetrahydro-1,6-naphthyridin-2-yl)-5-oxa-2,8-diazaspiro[3.5]nonan-2-yl]methyl]morpholin-4-yl]quinoline-8-carbonitrile] |
| 6 | C[C@@H]1CN(c2ccc(C#N)c3ncccc23)C[C@H](CN2CCN(c3cc4c(cn3)CCNC4)CC2)O1 [Example 20, 5-[(2R,6S)-2-methyl-6-[[4-(5,6,7,8-tetrahydro-2,6-naphthyridin-3-yl)piperazin-1-yl]methyl]morpholin-4-yl]quinoline-8-carbonitrile] |
| 2 | C[C@@H]1Cc2cc(N3CCN(C[C@H]4CN(c5ccc(C#N)c6nccnc56)C[C@@H](C)O4)CC3)ncc2CN1 (single isomer, unassigned) [Example 83] |
| 4 | C[C@@H]1CN(c2ccc(C#N)c3ncccc23)C[C@H](CN2CCN(c3cc4c(cn3)CN[C@@H](C)C4)CC2)O1 (single isomer, unassigned) [Example 71] |
| < 3 | C[C@@H]1CN(c2ccc(C#N)c3ncccc23)C[C@H](CN2CCN(c3ncc4c(n3)CCNC4)CC2)O1 [Example 29, 5-[(2R,6S)-2-methyl-6-[[4-(5,6,7,8-tetrahydropyrido[4,3-d]pyrimidin-2-yl)piperazin-1-yl]methyl]morpholin-4-yl]quinoline-8-carbonitrile] |
| 4 | C[C@@H]1CN(c2ccc(C#N)c3ncccc23)C[C@H](CN2CCN(c3cc4c(cn3)CNCC4)CC2)O1 [Example 19, 5-[(2R,6S)-2-methyl-6-[[4-(5,6,7,8-tetrahydro-2,7-naphthyridin-3-yl)piperazin-1-yl]methyl]morpholin-4-yl]quinoline-8-carbonitrile] |
| 4 | C[C@@H]1CN(c2ccc(C#N)c3ncccc23)C[C@H](CN2CCN(c3cc4c(cn3)CCN[C@@H]4C)CC2)O1 (single isomer, unassigned) [Example 74] |
| 5 | C[C@@H]1CN(c2ccc(C#N)c3ncccc23)C[C@H](CN2CCN(c3ccc4c(n3)CNCC4)CC2)O1 [Example 69, 5-[(2R,6S)-2-methyl-6-[[4-(5,6,7,8-tetrahydro-1,7-naphthyridin-2-yl)piperazin-1-yl]methyl]morpholin-4-yl]quinoline-8-carbonitrile] |
| 5 | C[C@@H]1CN(c2ccc(C#N)c3ncccc23)C[C@H](CN2CCN(c3ncc4c(n3)CNCC4)CC2)O1 [Example 12, 5-[(2R,6S)-2-methyl-6-[[4-(5,6,7,8-tetrahydropyrido[3,4-d]pyrimidin-2-yl)piperazin-1-yl]methyl]morpholin-4-yl]quinoline-8-carbonitrile] |
